Results reported in patent US20180133327A1, “Cell Penetrating Peptides and Complexes Comprising the Same” (Amal Therapeutics SA, priority 2015, published 2018).

What was measured:
Assay type in all cases: in vivo, mice
[1] = tested on: IFN-γ-producing OVA257-264-specific CD8 T cells; experiment: Vaccination with ZEBRA CPP truncation constructs plus TLR agonist adjuvant, IFN-γ Elispot on spleen cells, CD8
Method: (§1) Mice were vaccinated three times (wk0, wk2 and wk9) by s.c. injection (right flank) of 10 nmoles of OVACD8CD4 (the cargo without Zebra CPP truncation), Z13OVACD8CD4, Z14OVACD8CD4, Z15OVACD8CD4, Z18OVACD8CD4 and i.m. injection of 50 μg of Hiltonol (right hind leg). One week after the last vaccination, Elispot assay was performed on spleen cells for detecting IFN-y-producing OVA257-264-specific CD8 T cells (A) and OVA323-339-specific CD4 T cells (B). *, p<0.05; **, p<0.01.
as §1, with “Z15OVACD8CD4 or” for “Z15OVACD8CD4,”, “20” for “i.m. injection of 50”, “Pam3CSK4.” for “Hiltonol (right hind leg).”, “IFN-γ-producing” for “IFN-y-producing”
Mice were vaccinated three times (wk0, wk2 and wk9) by s.c. injection (right flank) of 10 nmoles of Z13OVACD8CD4, Z15OVACD8CD4 or Z18OVACD8CD4 and 20 μg of MPLA. One week after the last vaccination, Elispot assay was performed on spleen cells for detecting IFN-γ-producing OVA257-264-specific CD8 T cells (A) and OVA323-339-specific CD4 T cells (B). *, p<0.05; **, p<0.01.
To extend the previous findings to in vivo vaccination, Z13, Z14, Z15 and Z18 conjugated to antigenic cargo containing both CD8 and CD4 T cell epitopes from OVA (as described in Example 4 for Z13, Z15 and Z18) was synthesized. For Z14 the construct was as follows:
(§2) Firstly, those constructs were tested with Hiltonol adjuvant (a TLR3 agonist). […] The number of peptide-specific IFN-γ-producing cells was calculated by subtracting the number of IFN-γ-secreting cells cultured without peptide to that obtained with cells cultured with peptide. […]

[2] = tested on: IFN-γ-producing OVA323-339-specific CD4 T cells; experiment: Vaccination with ZEBRA CPP truncation constructs plus TLR agonist adjuvant, IFN-γ Elispot on spleen cells, CD4
Method: as §1
Mice were vaccinated three times (wk0, wk2 and wk9) by s.c. injection (right flank) of 10 nmoles of OVACD8CD4 (the cargo without Zebra CPP truncation), Z13OVACD8CD4, Z14OVACD8CD4, Z15OVACD8CD4 or Z18OVACD8CD4 and 20 μg of Pam3CSK4. One week after the last vaccination, Elispot assay was performed on spleen cells for detecting IFN-γ-producing OVA257-264-specific CD8 T cells (A) and OVA323-339-specific CD4 T cells (B). *, p<0.05; **, p<0.01.
Mice were vaccinated three times (wk0, wk2 and wk9) by s.c. injection (right flank) of 10 nmoles of Z13OVACD8CD4, Z15OVACD8CD4 or Z18OVACD8CD4 and 20 μg of MPLA. […]
as §2

[3] = tested on: self antigen (CD8 epitope from gp100)-specific CD8 T cells; experiment: Self antigen-specific CD8 T cell response after vaccination (gp100CD8 restimulation, multimer staining); conditions: 10 nmol ZxxOVACD4gp100CD8 s.c. wk0, wk2, wk9, combined with MPLA or Hiltonol
Method: The constructs were tested in combination with Hiltonol (A) and MPLA (B). Briefly, Mice were vaccinated three times (wk0, wk2 and wk9) by s.c. injection (right flank) of 10 nmol of Z13OVACD4gp1 00CD8, Z14OVACD4gp1 00CD8, Z18OVACD4gp100CD8 and i.m. injection of […] of Hiltonol (right hind leg) or s.c. injection of 20 μg of MPLA. One week after the last vaccination, spleen cells were restimulated in vitro for 7 days with gp100CD8 peptide and stained as described in Example 6.
To extend the previous findings to self antigen-specific immune response, Z13, Z14 and Z18 conjugated to antigenic cargo containing a self antigen (CD8 epitope from gp100) and CD4 T cell epitope from OVA were synthesized.
Firstly, those constructs were tested with Hiltonol or MPLA adjuvant. To this end, mice were vaccinated three times (wk0, wk2 and wk9) by s.c. injection (right flank) of 10 nmol of Z13OVACD4gp100CD8, Z14OVACD4gp100CD8, Z18OVACD4gp100CD8 and i.m. injection of 50 μg of Hiltonol (right hind leg) or s.c. injection of 20 μg of MPLA. One week after the last vaccination, spleen cells were restimulated in vitro for 7 days with gp100CD8 peptide and stained as follow. Briefly, for surface staining, after FcR blocking, the following mAb were used: CD4 (RMA4-4), CD8 (53-6.7), CD11b (M1/70), CD19 (6D5), all from BD Biosciences. Dead cells were identified with LIVE/DEAD yellow fluorescent reactive dye (L34959) from Life Technologies and were excluded from analyses. MHC-peptide multimers were from Immudex (Copenhagen, Denmark). Multimer gating strategy used a dump gate (CD4, CD11b, CD19) and excluded dead cells.

[4] = 10 nmol ZxxOVACD8CD4 s.c. wk0, wk2, wk9 and 20 μg Pam3CSK4 (TLR2 agonist)
[5] = 10 nmol ZxxOVACD8CD4 s.c. wk0, wk2, wk9 and 20 μg MPLA (TLR4 agonist)

## KRYKNRVASRKSRAKFK (CPP Z15) [ZEBRA CPP truncation]
[1]; 10 nmol ZxxOVACD8CD4 s.c. wk0, wk2, wk9, Hiltonol, Pam3CSK4 or MPLA
  CD8 T cell immune responses, for any adjuvant: low CD8 T cell immune responses

## REVAAAKSSENDRLRLLLK [Z18]
[1]; [4]
  CD8 immune response, combined with Pam3CSK4: highest CD8 and CD4 immune response
[2]; [4]
  CD4 immune response, combined with Pam3CSK4: highest CD8 and CD4 immune response
[3]
  self antigen-specific CD8 T cell immune response: did not elicit self antigen-specific CD8 T cell responses

## KRYKNRVASRKSRAKFKQLLQHYREVAAAK [Z14]
[3]
  self antigen-specific CD8 T cell immune response: high self antigen-specific CD8 immune response

## KRYKNRVASRKSRAKFKQLLQHYREVAAAKSSENDRLRLLLK [Z13]
[1]; [5]
  CD8 immune response, combined with MPLA: most efficacious
[2]; [5]
  CD4 immune response, combined with MPLA: most efficacious
[3]
  self antigen-specific CD8 T cell immune response: high self antigen-specific CD8 immune response
